Test results reported in patent US20060069132A1, “Azolecarboxamide herbicides” (priority 2004, published 2006).

Tests used:
yellow nutsedge = assay: Test C pre-/postemergence herbicide test; assay type: in vivo, Cyperus esculentus; conditions: preemergence
Procedure, shortened: (§1)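 Pre- and postemergence application, solvent/surfactant formulation; post at 1- to 4-leaf stage (2–18 cm). Greenhouse 12–14 d. Visual rating vs controls, 0 = no effect, 100 = complete control.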

[1] = system: smallflower umbrella sedge; assay: Test C flooded paddy test; assay type: in vivo, Cyperus difformis
lambsquarters = assay: Test C pre-/postemergence herbicide test; assay type: in vivo, Chenopodium album; conditions: preemergence
Procedure, shortened: as §1

velvetleaf = assay: Test A pre-/postemergence herbicide test; assay type: in vivo, Abutilon theophrasti
Procedure, shortened: (§2)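 Visual injury rating on a 0–100 scale (0 no effect, 100 complete control) versus untreated controls, about ten days after treatment in greenhouse. Pre: directed soil spray onto seeded sandy loam. Post: spray to runoff on plants 2–10 cm tall at one- to two-leaf stage.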

morningglory [2] = assay: Test A pre-/postemergence herbicide test; assay type: in vivo, Ipomoea spp.
Procedure, shortened: as §2

corn = assay: Test C pre-/postemergence herbicide test; assay type: in vivo, Zea mays; conditions: preemergence
Procedure, shortened: as §1

[3] = system: common (oilseed) sunflower; assay: Test C pre-/postemergence herbicide test; assay type: in vivo, Helianthus annuus; conditions: preemergence
Procedure, shortened: as §1

rice = assay: Test C flooded paddy test; assay type: in vivo, Oryza sativa
Procedure, shortened: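 Plants were grown to the 1- to 4-leaf stage (2–18 cm) and then treated postemergence, or grown to the 2-leaf stage for the flooded paddy test. They were held in a greenhouse for 12 to 14 days and then scored by eye against controls, where 0 is no effect and 100 is complete control.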

ducksalad = assay: Test C flooded paddy test; assay type: in vivo, Heteranthera limosa
giant foxtail = assay: Test C pre-/postemergence herbicide test; assay type: in vivo, Setaria faberi; conditions: preemergence
Procedure, shortened: as §1

morningglory [4] = assay: Test C pre-/postemergence herbicide test; assay type: in vivo, Ipomoea coccinea; set-up: key to Plant response rating, Morningglory: 0 = no effect, 100 = complete control; conditions: preemergence
Procedure, shortened: as §1

woolly cupgrass = assay: Test C pre-/postemergence herbicide test; assay type: in vivo, Eriochloa villosa; conditions: preemergence
Procedure, shortened: as §1

Surinam grass = assay: Test C pre-/postemergence herbicide test; assay type: in vivo, Urochloa decumbens; conditions: preemergence
Procedure, shortened: as §1

[5] = 125 g ai/ha, scale 0 (no effect) to 100 (complete control), visual, 12 to 14 days
[6] = 500 g ai/ha, scale 0 to 100 (0 no effect, 100 complete control), visual, 12 to 14 days
[7] = 62 g ai/ha, scale 0 to 100 (0 no effect, 100 complete control)
[8] = 125 g ai/ha, scale 0 to 100 (0 no effect, 100 complete control)
[9] = 250 g ai/ha, scale of 0 to 100, 0 is no effect, 100 is complete control
[10] = 500 g ai/ha, visual rating after 12 to 14 days, scale 0 to 100 (0 no effect, 100 complete control)
[11] = Postemergence, 500 g ai/ha, 0 to 100 scale, 0 no effect, 100 complete control
[12] = Postemergence, 2000 g ai/ha, 0 to 100 scale, 0 no effect, 100 complete control
[13] = Preemergence, 2000 g ai/ha, visual rating, 0 to 100 scale (0 no effect, 100 complete control)
[14] = preemergence, 500 g ai/ha, visual injury, 0 to 100 scale (0 no effect, 100 complete control)

## CCNC(=O)c1cccc(NC(=O)c2sc(C(C)(C)C)nc2CC)c1 [Compound 210]
Yellow nutsedge; 62 g ai/ha, scale 0 to 100
  Plant response rating, Nutsedge, Yellow: 0
Yellow nutsedge; [5]
  Plant response rating, Nutsedge, Yellow: 0
Yellow nutsedge; 250 g ai/ha, scale 0-100
  Plant response rating, Nutsedge, Yellow: 5
Yellow nutsedge; [6]
  Plant response rating, Nutsedge, Yellow: 30
[1]; [7]
  Sedge, Umbrella plant response rating: 75
[1]; [8]
  Sedge, Umbrella plant response rating: 80
[1]; [9]
  Sedge, Umbrella plant response rating: 85
[1]; [10]
  Plant response rating, Sedge, Umbrella: 90
lambsquarters; 62 g ai/ha, scale 0 to 100
  Plant response rating, Lambsquarters: 100
lambsquarters; [5]
  Plant response rating, Lambsquarters: 100
lambsquarters; 250 g ai/ha, scale 0-100
  Plant response rating, Lambsquarters: 100
lambsquarters; [6]
  Plant response rating, Lambsquarters: 100
velvetleaf; [11]
  Velvetleaf plant response rating: 40
velvetleaf; [12]
  Plant response rating, Velvetleaf: 65
velvetleaf; [13]
  Velvetleaf plant response rating: 95
velvetleaf; [14]
  Velvetleaf plant response rating: 70
Morningglory [2]; [11]
  Morningglory plant response rating: 20
Morningglory [2]; [12]
  Plant response rating, Morningglory: 25
Morningglory [2]; [13]
  Morningglory plant response rating: 100
Morningglory [2]; [14]
  Morningglory plant response rating: 55
corn; 62 g ai/ha, scale 0 to 100
  Plant response rating, Corn: 0
corn; [5]
  Plant response rating, Corn: 10
corn; 250 g ai/ha, scale 0-100
  Plant response rating, Corn: 20
corn; [6]
  Plant response rating, Corn: 40
[3]; 62 g ai/ha, scale 0 to 100
  Plant response rating, Sunflower: 0
[3]; [5]
  Plant response rating, Sunflower: 0
[3]; 250 g ai/ha, scale 0-100
  Plant response rating, Sunflower: 0
[3]; [6]
  Plant response rating, Sunflower: 0
rice; [7]
  Rice plant response rating: 35
rice; [8]
  Rice plant response rating: 55
rice; [9]
  Rice plant response rating: 75
rice; [10]
  Plant response rating, Rice: 75
ducksalad; [7]
  Ducksalad plant response rating: 40
ducksalad; [8]
  Ducksalad plant response rating: 55
ducksalad; [9]
  Ducksalad plant response rating: 85
ducksalad; [10]
  Plant response rating, Ducksalad: 90
Giant foxtail; 62 g ai/ha, scale 0 to 100
  Plant response rating, Foxtail, Giant: 0
Giant foxtail; [5]
  Plant response rating, Foxtail, Giant: 10
Giant foxtail; 250 g ai/ha, scale 0-100
  Plant response rating, Foxtail, Giant: 10
Giant foxtail; [6]
  Plant response rating, Foxtail, Giant: 60
Morningglory [4]; 62 g ai/ha, scale 0 to 100
  Plant response rating, Morningglory: 0
Morningglory [4]; [5]
  Plant response rating, Morningglory: 0
Morningglory [4]; 250 g ai/ha, scale 0-100
  Plant response rating, Morningglory: 5
Morningglory [4]; [6]
  Plant response rating, Morningglory: 10
Woolly cupgrass; 62 g ai/ha, scale 0 to 100
  Plant response rating, Cupgrass, Woolly: 0
Woolly cupgrass; [5]
  Plant response rating, Cupgrass, Woolly: 0
Woolly cupgrass; 250 g ai/ha, scale 0-100
  Plant response rating, Cupgrass, Woolly: 5
Woolly cupgrass; [6]
  Plant response rating, Cupgrass, Woolly: 10
Surinam grass; 62 g ai/ha, scale 0 to 100
  Plant response rating, Surinam Grass: 0
Surinam grass; [5]
  Plant response rating, Surinam Grass: 5
Surinam grass; 250 g ai/ha, scale 0-100
  Plant response rating, Surinam Grass: 10
Surinam grass; [6]
  Plant response rating, Surinam Grass: 50
